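A five-concentration, 48-hour dose response in 96-well plates underlies each endpoint, interpolated linearly between surrounding concentrations. Abbreviation: GI50, concentration required for 50% inhibition of growth.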 Active and inactive are the calls of the source. No stated cut-off is given here; in the data, active = GI50 up to about 1.1 µM and inactive = higher.
Tests used:
Experiment in all cases: inhibition of tumour cell growth, NCI panel, 48 h
A498 = tested on: A498
ACHN = tested on: ACHN
CAKI-1 = tested on: CAKI-1
COLO 205 = tested on: COLO 205
HCC 2998 = tested on: HCC 2998
HCT-116 = tested on: HCT-116
HOP-62 = tested on: HOP-62
HOP-92 = tested on: HOP-92
HT-29 = tested on: HT-29
IGROV-1 = tested on: IGROV-1
M14 = tested on: M14
NCI/ADR-RES = tested on: NCI/ADR-RES
OVCAR-3 = tested on: OVCAR-3
PC-3 = tested on: PC-3
RPMI-8226 = tested on: RPMI-8226
SF-539 = tested on: SF-539
SN12C = tested on: SN12C
SR = tested on: SR
UACC-257 = tested on: UACC-257
CCRF-CEM = tested on: CCRF-CEM

Measured: GI50

CCCCn1cnc2c(SC)ncnc21
inactive: A498 > 100 µM | ACHN > 100 µM | CAKI-1 > 100 µM | COLO 205 > 100 µM | HCC 2998 > 100 µM | HCT-116 > 100 µM | HOP-62 > 100 µM | HOP-92 > 100 µM | HT-29 > 100 µM | IGROV-1 > 100 µM | M14 > 100 µM | NCI/ADR-RES > 100 µM | OVCAR-3 > 100 µM | PC-3 > 100 µM | RPMI-8226 > 100 µM | SF-539 > 100 µM | SN12C > 100 µM | SR 3.45 µM | UACC-257 > 100 µM

COC(=O)C1C(O)C(C)C(O)C(C)(O)C=C(C)C2=C3C(=C(C)C(=O)c4c(O)c(c(C)c(OC(C)=O)c43)NC(=O)C(C)=C/C=C\C(C)(O)C(O)C(C)C1O)OCO2 (stereo not drawn)
inactive: A498 > 100 µM | ACHN > 100 µM | CCRF-CEM 49.8 µM | COLO 205 24.4 µM | HCC 2998 57.4 µM | HCT-116 35.5 µM | HOP-62 > 100 µM | HOP-92 24.7 µM | HT-29 62.2 µM | IGROV-1 55.6 µM | M14 43.6 µM | NCI/ADR-RES > 100 µM | OVCAR-3 25.7 µM | PC-3 32.5 µM | RPMI-8226 45.4 µM | SF-539 > 100 µM | SN12C 94 µM | SR 49.4 µM | UACC-257 28.9 µM

Clc1ccc(/C=N/c2ccc3c(c2)Cc2ccccc2-3)c(Cl)c1
inactive: A498 > 100 µM | ACHN > 100 µM | CAKI-1 > 100 µM | CCRF-CEM 88.5 µM | COLO 205 > 100 µM | HCT-116 58.1 µM | HOP-62 > 100 µM | HOP-92 > 100 µM | HT-29 > 100 µM | IGROV-1 > 100 µM | M14 > 100 µM | NCI/ADR-RES > 100 µM | OVCAR-3 > 100 µM | PC-3 > 100 µM | RPMI-8226 75.2 µM | SF-539 > 100 µM | SN12C > 100 µM | SR 45.9 µM | UACC-257 > 100 µM

CCOC(=O)c1c(CN2CCCC2)n(-c2ccccc2)c2cc(Br)c(OC)cc12
inactive: A498 4.78 µM | ACHN 11.1 µM | CAKI-1 41.6 µM | CCRF-CEM 8.87 µM | COLO 205 11.8 µM | HCT-116 11.2 µM | HOP-62 8.75 µM | HOP-92 10.6 µM | HT-29 7.57 µM | IGROV-1 16.5 µM | M14 16.3 µM | NCI/ADR-RES 15.2 µM | OVCAR-3 24.9 µM | PC-3 20.8 µM | RPMI-8226 12.8 µM | SF-539 23.6 µM | SN12C 26.1 µM | SR 6.14 µM | UACC-257 13.2 µM

Cc1ccc(S(=O)(=O)NNC(=S)Nc2cccc3ccccc23)cc1
inactive: A498 39.1 µM | ACHN 29.9 µM | CAKI-1 55.7 µM | CCRF-CEM 34.7 µM | COLO 205 36.8 µM | HCC 2998 53.8 µM | HCT-116 55.2 µM | HOP-62 59.3 µM | HOP-92 30.6 µM | HT-29 56.5 µM | IGROV-1 61.5 µM | M14 43.2 µM | NCI/ADR-RES 38.1 µM | PC-3 37.2 µM | RPMI-8226 37.4 µM | SF-539 80.4 µM | SN12C 33.7 µM | SR 46.3 µM | UACC-257 13.8 µM

CN(C)/N=C1\C=C2CC[C@H](O[Si](C)(C)C(C)(C)C)[C@@]2(C)CC1
inactive: A498 17.8 µM | ACHN 16.5 µM | CAKI-1 14.3 µM | CCRF-CEM 11.8 µM | COLO 205 16.9 µM | HCC 2998 16.9 µM | HOP-62 17.9 µM | HOP-92 15.2 µM | HT-29 19 µM | IGROV-1 21.7 µM | M14 18.2 µM | NCI/ADR-RES 18.2 µM | OVCAR-3 14.5 µM | PC-3 14.1 µM | RPMI-8226 4.4 µM | SF-539 26.2 µM | SR 18.6 µM | UACC-257 16.7 µM
